# Experimental data: patent US7772241B2, “Variolin derivatives and their use as antitumor agents” (Pharma Mar S.A., priority 2001, dated 2010)
# Where two headings read alike, the source gives them in different places.
# Assays:
# K-562 = test: Inhibition of cells growth by colorimetric (SRB) assay, K-562; conditions: for GI50 / CC50: Homo sapiens, K562, 48 h; for GI50: read-out: K-562 GI50, SRB assay, 48 hours exposure; for CC50: read-out: K-562 LC50, SRB assay, 48 hours exposure; for K-562 TGI: SRB assay, 48 hours exposure
# Method in brief: (§1)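 Read-out is sulforhodamine B protein stain (OD 490 nm) after cold TCA fixation, following 48 h continuous exposure to samples spanning 10 to 10^−8 μg/ml.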
# A-549 = test: Inhibition of cells growth by colorimetric (SRB) assay, A-549; conditions: for GI50 / CC50: Homo sapiens, A549, 48 h
# Method in brief: as §1
# SK-MEL-28 = test: Inhibition of cells growth by colorimetric (SRB) assay, SK-MEL-28; conditions: for GI50 / CC50: Homo sapiens, SK-MEL-28, 48 h; for GI50: read-out: MEL-28 GI50, SRB assay, 48 hours exposure; for CC50: read-out: MEL-28 LC50, SRB assay, 48 hours exposure; for MEL-28 TGI: SRB assay, 48 hours exposure
# Method in brief: as §1
# HT-29 = test: Inhibition of cells growth by colorimetric (SRB) assay, HT-29; conditions: for GI50 / CC50: Homo sapiens, HT-29, 48 h
# Method in brief: as §1
# LoVo = test: Inhibition of cells growth by colorimetric (SRB) assay, LoVo; conditions: for GI50 / CC50: Homo sapiens, LoVo, 48 h; for GI50: read-out: LOVO GI50, SRB assay, 48 hours exposure; for CC50: read-out: LOVO LC50, SRB assay, 48 hours exposure; for LOVO TGI: SRB assay, 48 hours exposure
# Method in brief: as §1
# LoVo-Dox = test: Inhibition of cells growth by colorimetric (SRB) assay, LoVo-Dox; conditions: for GI50 / CC50: Homo sapiens, 48 h; for GI50: read-out: LOVO-DOX GI50, SRB assay, 48 hours exposure; for CC50: read-out: LOVO-DOX LC50, SRB assay, 48 hours exposure; for LOVO-DOX TGI: SRB assay, 48 hours exposure
# Method in brief: as §1
# DU-145 = test: Inhibition of cells growth by colorimetric (SRB) assay, DU-145; conditions: for GI50 / CC50: Homo sapiens, DU-145, 48 h; for GI50: read-out: DU-145 GI50, SRB assay, 48 hours exposure; for CC50: read-out: DU-145 LC50, SRB assay, 48 hours exposure; for DU-145 TGI: SRB assay, 48 hours exposure
# Method in brief: as §1
# LNCaP = test: Inhibition of cells growth by colorimetric (SRB) assay, LNCaP; conditions: for GI50 / CC50: Homo sapiens, LNCaP, 48 h; for GI50: read-out: LN-caP GI50, SRB assay, 48 hours exposure; for CC50: read-out: LN-caP LC50, SRB assay, 48 hours exposure; for LN-caP TGI: SRB assay, 48 hours exposure
# Method in brief: as §1
# SK-BR-3 = test: Inhibition of cells growth by colorimetric (SRB) assay, SK-BR-3; conditions: for GI50 / CC50: Homo sapiens, SK-BR-3, 48 h; for GI50: read-out: SK-BR-3 GI50, SRB assay, 48 hours exposure; for CC50: read-out: SK-BR-3 LC50, SRB assay, 48 hours exposure; for SK-BR-3 TGI: SRB assay, 48 hours exposure
# Method in brief: as §1
# IGROV-1 = test: Inhibition of cells growth by colorimetric (SRB) assay, IGROV-1; conditions: for GI50 / CC50: Homo sapiens, IGROV-1, 48 h; for GI50: read-out: IGROV GI50, SRB assay, 48 hours exposure; for CC50: read-out: IGROV LC50, SRB assay, 48 hours exposure; for IGROV TGI: SRB assay, 48 hours exposure
# Method in brief: as §1
# IGROV-ET = test: Inhibition of cells growth by colorimetric (SRB) assay, IGROV-ET; conditions: for GI50 / CC50: Homo sapiens, 48 h; for GI50: read-out: IGROV-ET GI50, SRB assay, 48 hours exposure; for CC50: read-out: IGROV-ET LC50, SRB assay, 48 hours exposure; for IGROV-ET TGI: SRB assay, 48 hours exposure
# Method in brief: as §1
# HeLa = test: Inhibition of cells growth by colorimetric (SRB) assay, HeLa; conditions: for GI50: Homo sapiens, HeLa, 48 h, read-out: HELA GI50, SRB assay, 48 hours exposure; for HELA TGI: SRB assay, 48 hours exposure
# Text: (§2) The finality of these assays is to interrupt the growth of a “in vitro” tumor cell culture by means a continued exhibition of the cells to the sample to be testing.
# (§3) This form of the assay employs 96 well cell culture microplates of 9 mm diameter (Faircloth, 1988; Mosmann, 1983). Most of the cell lines are obtained from American Type Culture Collection (ATCC) derived from different human cancer types.
# (§4) Cells are maintained in RPMI 1640 10% FBS, supplemented with 0.1 g/l penicillin and 0.1 g/l streptomycin sulphate and then incubated at 37° C., 5% CO2 and 98% humidity. For the experiments, cells were harvested from subconfluent cultures using trypsin and resuspended in fresh medium before plating.
# (§5) Cells are seeded in 96 well microtiter plates, at 5×10^3 cells per well in aliquots of 195 μl medium, and they are allowed to attach to the plate surface by growing in drug free medium for 18 hours. Afterward, samples are added in aliquots of 5 μl in a ranging from 10 to 10^−8 μg/ml, dissolved in DMSO/EtOH/PBS (0.5:0.5:99). After 48 hours exposure, the antitumor effect are measured by the SRB methodology: cells are fixed by adding 50 μl of cold 50% (wt/vol) trichloroacetic acid (TCA) and incubating for 60 minutes at 4° C. Plates are washed with deionized water and dried. One hundred μl of SRB solution (0.4% wt/vol in 1% acetic acid) is added to each microtiter well and incubated for 10 minutes at room temperature. Unbound SRB is removed by washing with 1% acetic acid. Plates are air dried and bound stain is solubilized with Tris buffer. Optical densities are read on a automated spectrophotometric plate reader at a single wavelength of 490 nm.
# (§6) The values for mean +/−SD of data from triplicate wells are calculated. Some parameters for cellular responses can be calculated: GI=growth inhibition, TGI=total growth inhibition (cytostatic effect) and LC=cell killing (cytotoxic effect).
# HeLa-APL = test: Inhibition of cells growth by colorimetric (SRB) assay, HeLa-APL; conditions: for GI50 / CC50: Homo sapiens, 48 h; for GI50: read-out: HELA-APL GI50, SRB assay, 48 hours exposure; for CC50: read-out: HELA-APL LC50, SRB assay, 48 hours exposure; for HELA-APL TGI: SRB assay, 48 hours exposure
# Text: as §2, §3, §4, §5, §6
# PANC-1 = test: Inhibition of cells growth by colorimetric (SRB) assay, PANC-1; conditions: for GI50 / CC50: Homo sapiens, PANC-1, 48 h; for GI50: read-out: PANC-1 GI50, SRB assay, 48 hours exposure; for CC50: read-out: PANC-1 LC50, SRB assay, 48 hours exposure; for PANC-1 TGI: SRB assay, 48 hours exposure
# Method in brief: as §1
# [1] = read-out: A-549 GI50, SRB assay, 48 hours exposure
# [2] = read-out: A-549 LC50, SRB assay, 48 hours exposure
# [3] = read-out: HT-29 GI50, SRB assay, 48 hours exposure
# [4] = read-out: HT-29 LC50, SRB assay, 48 hours exposure
smiles,measurement,setting,value
CS(=O)(=O)c1nccc(-c2c3cccnc3n3c(N)nccc23)n1 [Compound 73],GI50,K-562,13.7 µM
same,CC50,K-562,29.4 µM
same,K-562 TGI,K-562,2.94E−05
same,GI50,A-549; [1],11.3 µM
same,CC50,A-549; [2],29.4 µM
same,GI50,"A-549; read-out: GI50 A-549, SRB assay, 48 hours exposure",4.41 µM
same,CC50,"A-549; read-out: LC50 A-549, SRB assay, 48 hours exposure",≥ 147 µM
same,A-549 TGI,"A-549; SRB assay, 48 hours exposure",2.94E−05
same,TGI A-549,"A-549; SRB assay, 48 hours exposure",1.47E−04
same,GI50,SK-MEL-28,5.46 µM
same,CC50,SK-MEL-28,29.4 µM
same,MEL-28 TGI,SK-MEL-28,2.94E−05
same,GI50,"HT-29; read-out: GI50 HT-29, SRB assay, 48 hours exposure",≥ 29.4 µM
same,GI50,HT-29; [3],14.6 µM
same,CC50,HT-29; [4],29.4 µM
same,CC50,"HT-29; read-out: LC50 HT-29, SRB assay, 48 hours exposure",≥ 147 µM
same,HT-29 TGI,"HT-29; SRB assay, 48 hours exposure",2.94E−05
same,TGI HT-29,"HT-29; SRB assay, 48 hours exposure",1.47E−04
same,GI50,LoVo,14.4 µM
same,CC50,LoVo,29.4 µM
same,LOVO TGI,LoVo,2.94E−05
same,GI50,LoVo-Dox,10.1 µM
same,CC50,LoVo-Dox,29.4 µM
same,LOVO-DOX TGI,LoVo-Dox,2.94E−05
same,GI50,DU-145,29.4 µM
same,CC50,DU-145,29.4 µM
same,DU-145 TGI,DU-145,2.94E−05
same,GI50,LNCaP,4.76 µM
same,CC50,LNCaP,29.4 µM
same,LN-caP TGI,LNCaP,1.51E−05
same,GI50,SK-BR-3,2.08 µM
same,CC50,SK-BR-3,29.4 µM
same,SK-BR-3 TGI,SK-BR-3,9.37E−06
same,GI50,IGROV-1,5.41 µM
same,CC50,IGROV-1,29.4 µM
same,IGROV TGI,IGROV-1,2.94E−05
same,GI50,IGROV-ET,2.05 µM
same,CC50,IGROV-ET,29.4 µM
same,IGROV-ET TGI,IGROV-ET,2.94E−05
same,GI50,HeLa,0.00896 µM
same,HELA TGI,HeLa,3.58E−08
same,GI50,HeLa-APL,0.013 µM
same,CC50,HeLa-APL,7.23 µM
same,HELA-APL TGI,HeLa-APL,7.23E−08
same,GI50,PANC-1,12.3 µM
same,CC50,PANC-1,29.4 µM
same,PANC-1 TGI,PANC-1,2.94E−05
Cl.Nc1nccc(-c2c3c(Cl)ccnc3n3c(N)nccc23)n1 [Compound 83],GI50,K-562,2.6 µM
same,CC50,K-562,26 µM
same,K-562 TGI,K-562,1.73E−05
same,GI50,A-549; [1],0.757 µM
same,CC50,A-549; [2],8.66 µM
same,A-549 TGI,"A-549; SRB assay, 48 hours exposure",1.57E−06
same,GI50,SK-MEL-28,1.32 µM
same,CC50,SK-MEL-28,11.8 µM
same,MEL-28 TGI,SK-MEL-28,3.64E−06
same,GI50,HT-29; [3],1.37 µM
same,CC50,HT-29; [4],26 µM
same,HT-29 TGI,"HT-29; SRB assay, 48 hours exposure",3.90E−06
same,GI50,LoVo,0.471 µM
same,CC50,LoVo,2.09 µM
same,LOVO TGI,LoVo,9.90E−07
same,GI50,LoVo-Dox,0.803 µM
same,CC50,LoVo-Dox,17.8 µM
same,LOVO-DOX TGI,LoVo-Dox,1.72E−06
same,GI50,DU-145,0.621 µM
same,CC50,DU-145,8.32 µM
same,DU-145 TGI,DU-145,1.49E−06
same,GI50,LNCaP,0.424 µM
same,CC50,LNCaP,1.52 µM
same,LN-caP TGI,LNCaP,8.03E−07
same,GI50,SK-BR-3,0.575 µM
same,CC50,SK-BR-3,1.92 µM
same,SK-BR-3 TGI,SK-BR-3,1.05E−06
same,GI50,IGROV-1,0.998 µM
same,CC50,IGROV-1,26 µM
same,IGROV TGI,IGROV-1,3.17E−06
same,GI50,IGROV-ET,1.08 µM
same,CC50,IGROV-ET,26 µM
same,IGROV-ET TGI,IGROV-ET,2.29E−06
same,GI50,HeLa,0.0478 µM
same,HELA TGI,HeLa,1.38E−07
same,GI50,HeLa-APL,0.0478 µM
same,CC50,HeLa-APL,0.257 µM
same,HELA-APL TGI,HeLa-APL,1.11E−07
same,GI50,PANC-1,1.95 µM
same,CC50,PANC-1,26 µM
same,PANC-1 TGI,PANC-1,1.07E−05
